Test results taken from patent US11660339B2, “Methods of treating cancer using compositions of antibodies and carrier proteins with antibody pretreatment” (Mayo Foundation for Medical Education and Research, priority 2015, dated 2023).

System: A375 human melanoma cells
Experiment: A375 human melanoma xenograft in athymic nude mice: tumor volume and survival
Assay type: in vivo
Source text: Data is represented as tumor volume in mm^3.
Survival was again assessed at day 40.

bevacizumab
therapeutic effect in the experiment (in words) (12 mg/kg BEV alone, 1.2 mg/kg BEV pretreatment before AB160): not therapeutic
Percent Alive on day 15 (day 15 post treatment, 12 mg/kg BEV, 30 mg/kg ABX, AB160, or 1.2 mg/kg BEV 24 hr before AB160): 0%
median survival (survival assessed at day 40): 7 days
